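Test compounds were applied to cells in 96-well plates for 48 hours at 5 doses. At the TGI there is no net growth.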
Key:
Test in all cases: inhibition of tumour cell growth, NCI panel, 48 h
SNB-75 CNS = tested on: SNB-75 CNS
UACC-257 melanoma = tested on: UACC-257 melanoma
SK-MEL-28 melanoma = tested on: SK-MEL-28 melanoma
ACHN renal = tested on: ACHN renal
HCT-15 colon = tested on: HCT-15 colon
UACC-62 melanoma = tested on: UACC-62 melanoma
COLO 205 colon = tested on: COLO 205 colon
SR leukemia = tested on: SR leukemia
SK-OV-3 ovarian = tested on: SK-OV-3 ovarian
MDA-MB-435 = tested on: MDA-MB-435
MOLT-4 leukemia = tested on: MOLT-4 leukemia
NCI-H23 lung = tested on: NCI-H23 lung
HT29 colon = tested on: HT29 colon
HOP-92 NSCLC = tested on: HOP-92 NSCLC
KM12 colon = tested on: KM12 colon
MCF7 breast = tested on: MCF7 breast
SK-MEL-2 melanoma = tested on: SK-MEL-2 melanoma
LOX IMVI melanoma = tested on: LOX IMVI melanoma
HCT-116 colon = tested on: HCT-116 colon
SF-295 CNS = tested on: SF-295 CNS
HOP-62 NSCLC = tested on: HOP-62 NSCLC
U251 CNS = tested on: U251 CNS
T-47D breast = tested on: T-47D breast
M14 melanoma = tested on: M14 melanoma
HCC-2998 colon = tested on: HCC-2998 colon
NCI-H522 lung = tested on: NCI-H522 lung
BT-549 breast = tested on: BT-549 breast
NCI-H460 lung = tested on: NCI-H460 lung
MDA-N = tested on: MDA-N
IGROV1 ovarian = tested on: IGROV1 ovarian
CCRF-CEM leukemia = tested on: CCRF-CEM leukemia
SF-539 CNS = tested on: SF-539 CNS
PC-3 prostate = tested on: PC-3 prostate
RPMI-8226 leukemia = tested on: RPMI-8226 leukemia
DU-145 prostate = tested on: DU-145 prostate
A549 NSCLC = tested on: A549 NSCLC
MDA-MB-231 breast = tested on: MDA-MB-231 breast
MALME-3M melanoma = tested on: MALME-3M melanoma
SF-268 CNS = tested on: SF-268 CNS
HL-60(TB) leukemia = tested on: HL-60(TB) leukemia
A498 renal = tested on: A498 renal
CAKI-1 renal = tested on: CAKI-1 renal
EKVX NSCLC = tested on: EKVX NSCLC
SK-MEL-5 melanoma = tested on: SK-MEL-5 melanoma
OVCAR-5 ovarian = tested on: OVCAR-5 ovarian
SN12C renal = tested on: SN12C renal
OVCAR-4 ovarian = tested on: OVCAR-4 ovarian
OVCAR-8 ovarian = tested on: OVCAR-8 ovarian
NCI/ADR-RES ovarian = tested on: NCI/ADR-RES ovarian
SW-620 colon = tested on: SW-620 colon
HS 578T breast = tested on: HS 578T breast
NCI-H226 lung = tested on: NCI-H226 lung
K-562 leukemia = tested on: K-562 leukemia
OVCAR-3 ovarian = tested on: OVCAR-3 ovarian
786-0 renal = tested on: 786-0 renal
SNB-19 CNS = tested on: SNB-19 CNS
UO-31 renal = tested on: UO-31 renal
TK-10 renal = tested on: TK-10 renal

**Q.** For CN(C)CCCN1c2ccccc2CCc2cccc([N+](=O)[O-])c21, which TGI (SNB-75 CNS) is on record?
**A.** The TGI was 24.4 µM.

**Q.** And the TGI (UACC-257 melanoma)?
**A.** The TGI was 34.7 µM.

**Q.** What about the TGI (SK-MEL-28 melanoma) of the same compound?
**A.** The TGI was 26.1 µM.

**Q.** What about the TGI (ACHN renal) of the same compound?
**A.** Its TGI is 53.6 µM.

**Q.** What about the TGI (HCT-15 colon) of the same compound?
**A.** The TGI was 29.6 µM.

**Q.** What about the TGI (UACC-62 melanoma) of the same compound?
**A.** Its TGI is 36.2 µM.

**Q.** And the TGI (COLO 205 colon)?
**A.** The TGI was 33.9 µM.

**Q.** What about the TGI (SR leukemia) of the same compound?
**A.** Its TGI is 28.5 µM.

**Q.** What about the TGI (SK-OV-3 ovarian) of the same compound?
**A.** Its TGI is 85.9 µM.

**Q.** What about the TGI (MDA-MB-435) of the same compound?
**A.** Its TGI is 30.3 µM.

**Q.** What about the TGI (MOLT-4 leukemia) of the same compound?
**A.** Its TGI is 29.8 µM.

**Q.** What about the TGI (NCI-H23 lung) of the same compound?
**A.** Its TGI is greater than 100 µM.

**Q.** And the TGI (HT29 colon)?
**A.** The TGI was 29.7 µM.

**Q.** And the TGI (HOP-92 NSCLC)?
**A.** Its TGI is 45.5 µM.

**Q.** What about the TGI (KM12 colon) of the same compound?
**A.** The TGI was 30.9 µM.

**Q.** What about the TGI (MCF7 breast) of the same compound?
**A.** The TGI was 30.7 µM.

**Q.** And the TGI (SK-MEL-2 melanoma)?
**A.** Its TGI is 65.6 µM.

**Q.** And the TGI (LOX IMVI melanoma)?
**A.** Its TGI is 30.2 µM.

**Q.** What about the TGI (HCT-116 colon) of the same compound?
**A.** Its TGI is 28.9 µM.

**Q.** What about the TGI (SF-295 CNS) of the same compound?
**A.** Its TGI is 30.1 µM.

**Q.** What about the TGI (HOP-62 NSCLC) of the same compound?
**A.** Its TGI is 30 µM.

**Q.** And the TGI (U251 CNS)?
**A.** The TGI was 32.9 µM.

**Q.** And the TGI (T-47D breast)?
**A.** The TGI was 27.8 µM.

**Q.** What about the TGI (M14 melanoma) of the same compound?
**A.** The TGI was 29.2 µM.

**Q.** And the TGI (HCC-2998 colon)?
**A.** Its TGI is 31.5 µM.

**Q.** And the TGI (NCI-H522 lung)?
**A.** The TGI was 30.6 µM.

**Q.** And the TGI (BT-549 breast)?
**A.** The TGI was 61 µM.

**Q.** What about the TGI (NCI-H460 lung) of the same compound?
**A.** The TGI was 32.1 µM.

**Q.** And the TGI (MDA-N)?
**A.** Its TGI is 29.7 µM.

**Q.** And the TGI (IGROV1 ovarian)?
**A.** The TGI was 32.3 µM.

**Q.** What about the TGI (CCRF-CEM leukemia) of the same compound?
**A.** Its TGI is 14.7 µM.

**Q.** And the TGI (SF-539 CNS)?
**A.** The TGI was 31.6 µM.

**Q.** And the TGI (PC-3 prostate)?
**A.** Its TGI is 34.5 µM.

**Q.** What about the TGI (RPMI-8226 leukemia) of the same compound?
**A.** Its TGI is 23.8 µM.

**Q.** What about the TGI (DU-145 prostate) of the same compound?
**A.** Its TGI is 32.3 µM.

**Q.** What about the TGI (A549 NSCLC) of the same compound?
**A.** Its TGI is greater than 100 µM.

**Q.** What about the TGI (MDA-MB-231 breast) of the same compound?
**A.** The TGI was 47.6 µM.

**Q.** And the TGI (MALME-3M melanoma)?
**A.** The TGI was 32.5 µM.

**Q.** And the TGI (SF-268 CNS)?
**A.** The TGI was 64.5 µM.

**Q.** What about the TGI (HL-60(TB) leukemia) of the same compound?
**A.** The TGI was 30.1 µM.

**Q.** What about the TGI (A498 renal) of the same compound?
**A.** Its TGI is 37.2 µM.

**Q.** What about the TGI (CAKI-1 renal) of the same compound?
**A.** The TGI was 48.4 µM.

**Q.** What about the TGI (EKVX NSCLC) of the same compound?
**A.** Its TGI is greater than 100 µM.

**Q.** And the TGI (SK-MEL-5 melanoma)?
**A.** The TGI was 30 µM.

**Q.** And the TGI (OVCAR-5 ovarian)?
**A.** Its TGI is greater than 100 µM.

**Q.** What about the TGI (SN12C renal) of the same compound?
**A.** Its TGI is 52.9 µM.

**Q.** And the TGI (OVCAR-4 ovarian)?
**A.** Its TGI is 45.2 µM.

**Q.** And the TGI (OVCAR-8 ovarian)?
**A.** Its TGI is 29.3 µM.

**Q.** What about the TGI (NCI/ADR-RES ovarian) of the same compound?
**A.** The TGI was 32.9 µM.

**Q.** And the TGI (SW-620 colon)?
**A.** The TGI was 36 µM.

**Q.** And the TGI (HS 578T breast)?
**A.** Its TGI is 70.5 µM.

**Q.** What about the TGI (NCI-H226 lung) of the same compound?
**A.** Its TGI is 69.5 µM.

**Q.** What about the TGI (K-562 leukemia) of the same compound?
**A.** The TGI was 29.1 µM.

**Q.** What about the TGI (OVCAR-3 ovarian) of the same compound?
**A.** The TGI was 29.8 µM.

**Q.** What about the TGI (786-0 renal) of the same compound?
**A.** Its TGI is 28.6 µM.

**Q.** What about the TGI (SNB-19 CNS) of the same compound?
**A.** Its TGI is greater than 100 µM.

**Q.** What about the TGI (UO-31 renal) of the same compound?
**A.** Its TGI is 41.7 µM.

**Q.** And the TGI (TK-10 renal)?
**A.** Its TGI is 37.2 µM.
